Test results reported in ChEMBL document CHEMBL3352110, “Design, synthesis and in vitro evaluation of novel dehydroabietic acid derivatives containing a dipeptide moiety as potential anticancer agents” (Eur J Med Chem, 2015).
The source made the active and inactive calls. The rule behind the calls is not given here.

Assays:
HeLa [1] = experiment: Cell cycle arrest in human HeLa cells assessed as accumulation at G2 phase at 15 uM after 48 hrs by propidium iodide stainin-based flow cytometry (reference value: 5.84%); type: functional
HeLa [2] = experiment: Induction of apoptosis in human HeLa cells assessed as late apoptotic cells at 15 uM after 12 hrs by Anexin-V-FITC/propidium iodide staining-based flow cytometry (reference value: 0.04%); type: functional
HeLa [3] = experiment: Induction of apoptosis in human HeLa cells assessed as chromatin fragmentation at 15 uM after 12 to 24 hrs by acridine orange/ethidium bromide staining-based assay relative to control; type: functional, cell-based
HeLa [4] = experiment: Induction of apoptosis in human HeLa cells assessed as chromatin condensation at 15 uM after 12 to 24 hrs by acridine orange/ethidium bromide staining-based assay; type: functional, cell-based
HeLa [5] = experiment: Cell cycle arrest in human HeLa cells assessed as accumulation at G1 phase at 10 uM after 48 hrs by propidium iodide stainin-based flow cytometry (reference value: 31.44%); type: functional
HeLa [6] = experiment: Induction of apoptosis in human HeLa cells assessed as dead cells at 10 uM after 12 hrs by Anexin-V-FITC/propidium iodide staining-based flow cytometry (reference value: 1.40%); type: functional
HeLa [7] = experiment: Induction of apoptosis in human HeLa cells assessed as increase in cytochrome c expression at 10 to 15 uM by Western blotting analysis relative to control; type: functional, cell-based
HeLa [8] = experiment: Induction of apoptosis in human HeLa cells assessed as DNA fragmentation at 15 uM after 12 to 24 hrs by TUNEL assay relative to control; type: functional, cell-based
HeLa [9] = experiment: Induction of apoptosis in human HeLa cells assessed as reduction in Bcl2 expression by Western blotting analysis relative to control; type: functional, cell-based
HeLa [10] = experiment: Induction of apoptosis in human HeLa cells assessed as increase in caspase-3 expression at 10 to 15 uM by Western blotting analysis relative to control; type: functional, cell-based
HeLa [11] = experiment: Cell cycle arrest in human HeLa cells assessed as accumulation at G1 phase at 15 uM after 48 hrs by propidium iodide stainin-based flow cytometry (reference value: 31.44%); type: functional
HeLa [12] = experiment: Induction of apoptosis in human HeLa cells assessed as ROS generation at 10 to 15 uM after 12 hrs by DCF-Da staining-based fluorescence microscopy relative to control; type: functional, cell-based
HeLa [13] = experiment: Induction of apoptosis in human HeLa cells assessed as increase in caspase-8 expression at 10 to 15 uM by Western blotting analysis relative to control; type: functional, cell-based
HeLa [14] = experiment: Induction of apoptosis in human HeLa cells assessed as caspase-9 activation by spectrophotometry relative to control relative to control; type: functional, cell-based; conditions: TDE = time-dependent effect
[15] = Cytotoxicity against human HL7702 cells after 48 hrs by MTT assay; type: functional, cell-based; conditions: L02, 48 h
HeLa [16] = experiment: Induction of apoptosis in human HeLa cells assessed as early apoptotic cells at 10 uM after 12 hrs by Anexin-V-FITC/propidium iodide staining-based flow cytometry (reference value: 1.40%); type: functional
HeLa [17] = experiment: Induction of apoptosis in human HeLa cells at 15 uM after 12 to 24 hrs by Hoechst 33258 staining-based assay relative to control; type: functional, cell-based
HeLa [18] = experiment: Induction of apoptosis in human HeLa cells assessed as viable cells at 10 uM after 12 hrs by Anexin-V-FITC/propidium iodide staining-based flow cytometry (reference value: 97.2%); type: functional; conditions: read-out: Activity
HeLa [19] = experiment: Cell cycle arrest in human HeLa cells assessed as accumulation at S phase at 15 uM after 48 hrs by propidium iodide stainin-based flow cytometry (reference value: 67.72%); type: functional
HeLa [20] = experiment: Cell cycle arrest in human HeLa cells assessed as accumulation at S phase at 10 uM after 48 hrs by propidium iodide stainin-based flow cytometry (reference value: 67.72%); type: functional
HeLa [21] = experiment: Induction of apoptosis in human HeLa cells assessed as late apoptotic cells at 10 uM after 12 hrs by Anexin-V-FITC/propidium iodide staining-based flow cytometry (reference value: 0.04%); type: functional
HeLa [22] = experiment: Induction of apoptosis in human HeLa cells assessed as change in mitochondrial membrane potential at 15 uM after 12 to 24 hrs by JC-1 staining-based assay relative to control; type: functional, cell-based
HeLa [23] = experiment: Induction of apoptosis in human HeLa cells assessed as early apoptotic cells at 15 uM after 12 hrs by Anexin-V-FITC/propidium iodide staining-based flow cytometry (reference value: 1.40%); type: functional
HeLa [24] = experiment: Cell cycle arrest in human HeLa cells assessed as accumulation at G2 phase at 10 uM after 48 hrs by propidium iodide stainin-based flow cytometry (reference value: 5.84%); type: functional
HeLa [25] = experiment: Cytotoxicity against human HeLa cells after 48 hrs by MTT assay; type: functional, cell-based
HeLa [26] = experiment: Induction of apoptosis in human HeLa cells assessed as viable cells at 15 uM after 12 hrs by Anexin-V-FITC/propidium iodide staining-based flow cytometry (reference value: 97.2%); type: functional; conditions: read-out: Activity
HeLa [27] = experiment: Induction of cytochrome C release in human HeLa cells assessed as nuclei conglomeration at 10 to 15 uM after 12 hrs by fluorescence microscopy relative to control; type: functional, cell-based
HeLa [28] = experiment: Induction of cytochrome C release in human HeLa cells assessed as karyopyknosis at 10 to 15 uM after 12 hrs by fluorescence microscopy relative to control; type: functional, cell-based
NCI-H460 = experiment: Cytotoxicity against human NCI-H460 cells after 48 hrs by MTT assay; type: functional, cell-based; conditions: NCI-H460, 48 h
MGC-803 = experiment: Cytotoxicity against human MGC803 cells after 48 hrs by MTT assay; type: functional, cell-based; conditions: MGC-803, 48 h
HeLa [29] = experiment: Induction of apoptosis in human HeLa cells assessed as increase in Bax expression at 10 to 15 uM by Western blotting analysis relative to control; type: functional, cell-based
HeLa [30] = experiment: Induction of apoptosis in human HeLa cells assessed as apoptosis ratio at 15 uM after 12 hrs by Anexin-V-FITC/propidium iodide staining-based flow cytometry (reference value: 1.44%); type: functional
HeLa [31] = experiment: Induction of apoptosis in human HeLa cells assessed as apoptosis ratio at 10 uM after 12 hrs by Anexin-V-FITC/propidium iodide staining-based flow cytometry (reference value: 1.44%); type: functional
HeLa [32] = experiment: Induction of apoptosis in human HeLa cells assessed as dead cells at 15 uM after 12 hrs by Anexin-V-FITC/propidium iodide staining-based flow cytometry (reference value: 1.40%); type: functional
HeLa [33] = experiment: Induction of apoptosis in human HeLa cells assessed as caspase-3 activation by spectrophotometry relative to control; type: functional, cell-based; conditions: TDE = time-dependent effect

Q: With `CC(C)c1ccc2c(c1)C(=O)C[C@H]1[C@](C)(C(=O)N[C@@H](Cc3ccccc3)C(=O)Nc3ccccc3Cl)CCC[C@]21C` as the compound, how does the Activity (HeLa [1]) read?
A: 1.47%

Q: And the Activity (HeLa [2])?
A: 13.7%

Q: And the Activity (HeLa [3])?
A: Active

Q: What about the Activity (HeLa [4]) of the same compound?
A: Active

Q: What about the Activity (HeLa [5]) of the same compound?
A: 27.79%

Q: What about the Activity (HeLa [6]) of the same compound?
A: 0.677%

Q: What about the Activity (HeLa [7]) of the same compound?
A: Active

Q: What about the Activity (HeLa [8]) of the same compound?
A: Active

Q: And the Activity (HeLa [9])?
A: Dose-dependent effect

Q: And the Activity (HeLa [10])?
A: Active

Q: And the Activity (HeLa [11])?
A: 15.49%

Q: What about the Activity (HeLa [12]) of the same compound?
A: Active

Q: And the Activity (HeLa [13])?
A: Active

Q: What about the Activity (HeLa [14]) of the same compound?
A: tde

Q: What about the IC50 [15] of the same compound?
A: 53.8 µM

Q: And the Activity (HeLa [16])?
A: 13.6%

Q: What about the Activity (HeLa [17]) of the same compound?
A: Active

Q: What about the viability at 10 µM (HeLa [18]) of the same compound?
A: 78.8%

Q: And the Activity (HeLa [19])?
A: 83.05%

Q: And the Activity (HeLa [20])?
A: 67.41%

Q: And the Activity (HeLa [21])?
A: 6.93%

Q: What about the Activity (HeLa [22]) of the same compound?
A: Active

Q: What about the Activity (HeLa [23]) of the same compound?
A: 21.8%

Q: What about the Activity (HeLa [24]) of the same compound?
A: 4.8%

Q: And the IC50 (HeLa [25])?
A: 7.76 µM

Q: What about the viability at 15 µM (HeLa [26]) of the same compound?
A: 64%

Q: And the Activity (HeLa [27])?
A: Active

Q: And the Activity (HeLa [28])?
A: Active

Q: And the IC50 (NCI-H460)?
A: 24.3 µM

Q: And the IC50 (MGC-803)?
A: 9.7 µM

Q: What about the Activity (HeLa [29]) of the same compound?
A: Active

Q: And the Activity (HeLa [30])?
A: 34.5%

Q: What about the Activity (HeLa [31]) of the same compound?
A: 20.53%

Q: What about the Activity (HeLa [32]) of the same compound?
A: 0.612%

Q: And the Activity (HeLa [33])?
A: tde
